Results reported in ChEMBL document CHEMBL1201862, “PubChem BioAssay data set” (2004).
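Step 1: Grow cells in 96-well plates. Step 2: Expose to compound for 48 hours at 5 concentrations. Step 3: Interpolate endpoints linearly; if unreached, use highest concentration. The concentration for 50% growth inhibition is given as GI50.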 The source made the active and inactive calls. Rule as the data show it: active = GI50 up to about 1.1 µM and inactive = higher.

Experiments:
Test in all cases: DTP human tumour cell line panel, 48 h
COLO 205 = test system: COLO 205
786-0 = test system: 786-0
CAKI-1 = test system: CAKI-1
NCI-H460 = test system: NCI-H460
SK-MEL-2 = test system: SK-MEL-2
HOP-92 = test system: HOP-92
IGROV-1 = test system: IGROV-1
ACHN = test system: ACHN
OVCAR-8 = test system: OVCAR-8
K562 = test system: K562
MOLT-4 = test system: MOLT-4
SF-268 = test system: SF-268
TK-10 = test system: TK-10
Malme-3M = test system: Malme-3M

| Structure (SMILES) | GI50 (COLO 205) | GI50 (786-0) | GI50 (CAKI-1) | GI50 (NCI-H460) | GI50 (SK-MEL-2) | GI50 (HOP-92) | GI50 (IGROV-1) | GI50 (ACHN) | GI50 (OVCAR-8) | GI50 (K562) | GI50 (MOLT-4) | GI50 (SF-268) | GI50 (TK-10) | GI50 (Malme-3M) |
| --- | --- | --- | --- | --- | --- | --- | --- | --- | --- | --- | --- | --- | --- | --- |
| O=C1c2ccccc2C2(O)Oc3cccc(O)c3C12O (stereo not given) | > 100 µM (inactive) | > 100 µM (inactive) | > 100 µM (inactive) | > 100 µM (inactive) | > 100 µM (inactive) | > 100 µM (inactive) | > 100 µM (inactive) | > 100 µM (inactive) | > 100 µM (inactive) | > 100 µM (inactive) | > 100 µM (inactive) | > 100 µM (inactive) | > 100 µM (inactive) | > 100 µM (inactive) |
| COc1ccccc1NC(=O)C(=O)C(c1cnc2ccc([N+](=O)[O-])cc2n1)[N+](=O)[O-] (stereo not given) | 38.3 µM (inactive) | > 100 µM (inactive) | > 100 µM (inactive) | > 100 µM (inactive) | > 100 µM (inactive) | > 100 µM (inactive) | > 100 µM (inactive) | 87.3 µM (inactive) | > 100 µM (inactive) | 31.5 µM (inactive) | 32.8 µM (inactive) | > 100 µM (inactive) | > 100 µM (inactive) | > 100 µM (inactive) |
| O=C(Nc1cc(Cl)c(Cl)cc1Cl)C(=O)C(C(=O)c1ccc2ccccc2c1)C1OC(=O)c2ccccc21 (stereo not given) | 17 µM (inactive) | 8.11 µM (inactive) | > 10 µM (inactive) | 10.4 µM (inactive) | 14.4 µM (inactive) | 1.96 µM (inactive) | 16.3 µM (inactive) | 16.7 µM (inactive) | 8 µM (inactive) | – | – | > 10 µM (inactive) | – | 13.2 µM (inactive) |
| N=C(N)NS(=O)(=O)c1ccc(Nc2c3ccccc3nc3c(C(=O)N4CCN(CCO)CC4)cccc23)cc1 | > 100 µM (inactive) | > 100 µM (inactive) | > 100 µM (inactive) | > 100 µM (inactive) | > 100 µM (inactive) | > 100 µM (inactive) | > 100 µM (inactive) | > 100 µM (inactive) | > 100 µM (inactive) | > 100 µM (inactive) | > 100 µM (inactive) | > 100 µM (inactive) | > 100 µM (inactive) | > 100 µM (inactive) |
| CCCCNC(=O)C1C2CCC(O2)C1C(=O)O (stereo not given) | 16.6 µM (inactive) | 16.1 µM (inactive) | – | 41 µM (inactive) | 27.5 µM (inactive) | 12 µM (inactive) | > 100 µM (inactive) | 22.6 µM (inactive) | 20.5 µM (inactive) | – | 18.1 µM (inactive) | 17.7 µM (inactive) | 18.1 µM (inactive) | 21.5 µM (inactive) |
| COc1ccc2oc(C(=O)O)c3c2c1CCC3CCC(=O)O (stereo not given) | > 100 µM (inactive) | > 100 µM (inactive) | – | > 100 µM (inactive) | > 100 µM (inactive) | > 100 µM (inactive) | > 100 µM (inactive) | > 100 µM (inactive) | > 100 µM (inactive) | > 100 µM (inactive) | > 100 µM (inactive) | > 100 µM (inactive) | > 100 µM (inactive) | > 100 µM (inactive) |
| COc1ccccc1NC(=O)c1nc2ccc([N+](=O)[O-])cc2nc1C | > 100 µM (inactive) | > 100 µM (inactive) | > 100 µM (inactive) | > 100 µM (inactive) | > 100 µM (inactive) | 51.8 µM (inactive) | > 100 µM (inactive) | > 100 µM (inactive) | > 100 µM (inactive) | > 100 µM (inactive) | > 100 µM (inactive) | > 100 µM (inactive) | > 100 µM (inactive) | > 100 µM (inactive) |
| O=C(Cc1ccccc1)Oc1ccc2c(-c3ccccc3)c(C(=O)Nc3ccc(Cl)cc3)c(=O)oc2c1 | > 100 µM (inactive) | > 100 µM (inactive) | > 100 µM (inactive) | > 100 µM (inactive) | – | > 100 µM (inactive) | > 100 µM (inactive) | > 100 µM (inactive) | > 100 µM (inactive) | > 100 µM (inactive) | > 100 µM (inactive) | > 100 µM (inactive) | > 100 µM (inactive) | > 100 µM (inactive) |
| O=C1Nc2ccc(Br)cc2/C1=N/Nc1ccc([N+](=O)[O-])cc1 | 27.2 µM (inactive) | 11.4 µM (inactive) | 22.8 µM (inactive) | 17.4 µM (inactive) | 31 µM (inactive) | 13.6 µM (inactive) | 38.8 µM (inactive) | 18.5 µM (inactive) | 14.4 µM (inactive) | 19.6 µM (inactive) | 34.3 µM (inactive) | 17.5 µM (inactive) | 18.3 µM (inactive) | 24.1 µM (inactive) |
| COc1ccc2nc3cc(Cl)ccc3c(NCCC(=O)OCC(O)C(O)C(O[C@H](C)C(=O)NC(C)C(=O)NC(CCC(N)=O)C(=O)OCc3ccccc3)C(C=O)NC(C)=O)c2c1 (stereo not given in full) | 18.3 µM (inactive) | 16.9 µM (inactive) | 20.2 µM (inactive) | 16.2 µM (inactive) | 21.1 µM (inactive) | 17.8 µM (inactive) | 16 µM (inactive) | 18.1 µM (inactive) | 16 µM (inactive) | 14 µM (inactive) | 15.4 µM (inactive) | 17.9 µM (inactive) | 22.8 µM (inactive) | > 100 µM (inactive) |
| O=C(Cc1ccccc1)C(c1ccccc1)S(=O)(=O)c1ccccc1 (stereo not given) | > 100 µM (inactive) | > 100 µM (inactive) | > 100 µM (inactive) | > 100 µM (inactive) | > 100 µM (inactive) | 81.5 µM (inactive) | > 100 µM (inactive) | > 100 µM (inactive) | > 100 µM (inactive) | 93.3 µM (inactive) | > 100 µM (inactive) | > 100 µM (inactive) | > 100 µM (inactive) | > 100 µM (inactive) |
| CSc1nc2c(nc(N)n2C2OCC(O)C(O)C2O)c(=O)n1C (stereo not given) | > 100 µM (inactive) | > 100 µM (inactive) | > 100 µM (inactive) | > 100 µM (inactive) | – | > 100 µM (inactive) | > 100 µM (inactive) | > 100 µM (inactive) | > 100 µM (inactive) | > 100 µM (inactive) | > 100 µM (inactive) | > 100 µM (inactive) | > 100 µM (inactive) | > 100 µM (inactive) |
| CCOC(=O)C1Nc2ccccc2[C@H]2OCC[C@@H]12 (stereo not given in full) | > 100 µM (inactive) | > 100 µM (inactive) | > 100 µM (inactive) | > 100 µM (inactive) | 0.0596 µM (active) | – | > 100 µM (inactive) | > 100 µM (inactive) | > 100 µM (inactive) | > 100 µM (inactive) | > 100 µM (inactive) | > 100 µM (inactive) | > 100 µM (inactive) | > 100 µM (inactive) |
| CCCCCCCCCCC/C(=N/O)c1ccc(O)c2ncccc12 | 45.9 µM (inactive) | 10.6 µM (inactive) | 3.16 µM (inactive) | 3.65 µM (inactive) | 2.4 µM (inactive) | 0.275 µM (active) | – | 2.21 µM (inactive) | 4.29 µM (inactive) | – | – | 2.9 µM (inactive) | 7.35 µM (inactive) | 2.47 µM (inactive) |
| O=C1CNNC(Cn2nc(-c3ccccc3)c3ccccc3c2=O)=N1 | > 100 µM (inactive) | > 100 µM (inactive) | – | > 100 µM (inactive) | > 100 µM (inactive) | > 100 µM (inactive) | > 100 µM (inactive) | > 100 µM (inactive) | > 100 µM (inactive) | > 100 µM (inactive) | > 100 µM (inactive) | > 100 µM (inactive) | > 100 µM (inactive) | > 100 µM (inactive) |
| Cc1ccc(S(=O)(=O)c2c(N)c3nccn3c3nc4ccccc4nc23)cc1 | > 100 µM (inactive) | 49 µM (inactive) | > 100 µM (inactive) | > 100 µM (inactive) | > 100 µM (inactive) | > 100 µM (inactive) | 13.5 µM (inactive) | 79.8 µM (inactive) | > 100 µM (inactive) | > 100 µM (inactive) | > 100 µM (inactive) | > 100 µM (inactive) | 69.8 µM (inactive) | > 100 µM (inactive) |
| COc1ccc(NC(=O)CC(=O)N/N=C/c2ccc(N(CCC#N)S(=O)(=O)c3ccccc3)cc2)cc1 | > 100 µM (inactive) | > 100 µM (inactive) | > 100 µM (inactive) | > 100 µM (inactive) | > 100 µM (inactive) | > 100 µM (inactive) | > 100 µM (inactive) | > 100 µM (inactive) | > 100 µM (inactive) | > 100 µM (inactive) | > 100 µM (inactive) | > 100 µM (inactive) | > 100 µM (inactive) | > 100 µM (inactive) |
| OC1C2C=CCC1CCC2 (stereo not given) | > 100 µM (inactive) | > 100 µM (inactive) | > 100 µM (inactive) | > 100 µM (inactive) | > 100 µM (inactive) | > 100 µM (inactive) | > 100 µM (inactive) | > 100 µM (inactive) | > 100 µM (inactive) | > 100 µM (inactive) | > 100 µM (inactive) | > 100 µM (inactive) | > 100 µM (inactive) | > 100 µM (inactive) |
| CCOC(=O)NN1C(=O)C(=P(c2ccccc2)(c2ccccc2)c2ccccc2)C(C(=O)OCC)=C1C | > 100 µM (inactive) | > 100 µM (inactive) | > 100 µM (inactive) | > 100 µM (inactive) | > 100 µM (inactive) | > 100 µM (inactive) | > 100 µM (inactive) | > 100 µM (inactive) | > 100 µM (inactive) | > 100 µM (inactive) | > 100 µM (inactive) | > 100 µM (inactive) | > 100 µM (inactive) | > 100 µM (inactive) |
| COC(=O)CC(C(C(=O)OCc1ccccc1)C(C)O)N1C(=O)OC(c2ccccc2)C1c1ccccc1 (stereo not given) | > 100 µM (inactive) | > 100 µM (inactive) | – | > 100 µM (inactive) | > 100 µM (inactive) | – | > 100 µM (inactive) | > 100 µM (inactive) | > 100 µM (inactive) | 81.1 µM (inactive) | 44.2 µM (inactive) | > 100 µM (inactive) | > 100 µM (inactive) | > 100 µM (inactive) |
